Reference: publication PMC3692431, “Anticonvulsant Activity of B2, an Adenosine Analog, on Chemical Convulsant-Induced Seizures” (PLoS ONE, 2013)

Tests used:
[1] = test system: strychnine-induced seizures; test: Strychnine-induced seizures in mice; assay type: in vivo; settings: 80 mg/kg, positive control; strychnine 1.5 mg/kg i.p.
Procedure: (§1) KA was dissolved in saline and the pH was adjusted to neutrality. The final concentration of KA was 0.7 µg/µl, and the convulsant dose was 1 µl (i.c.v.). […] The selective adenosine receptor antagonist DPCPX or SCH58261 was administered (i.p.) 5 min before administration of B2 or vehicle.
(§2) Mice were injected with B2 (1.25, 5, 20 mg/kg), carbamazepine (80 mg/kg) or vehicle 20 min before administration of strychnine (1.5 mg/kg) or 4-AP (13 mg/kg). […] The time of latency to seizure onset and mortality rate were recorded.

4-AP-induced seizures = 4-AP-induced seizures in mice; assay type: in vivo; settings: 80 mg/kg, positive control, 4-AP 13 mg/kg
Procedure: as §1, §2

PTZ-induced seizures [2] = test: PTZ-induced seizures with adenosine receptor antagonist pretreatment; assay type: in vivo, mice; settings: PTZ 85 mg/kg
Procedure: as §1
Twenty min later, mice were admdinistered with PTZ (85 mg/kg).

KA-induced seizures = KA-induced seizures in mice; assay type: in vivo; settings: 10 mg/kg, positive control, KA 0.7 µg i.c.v.
Procedure: as §1
The left lateral ventricle (0.6 mm posterior, 1.9 mm lateral, and 2.1 mm ventral to bregma) was cannulated as described. After a 7-day recovery period, mice were injected with either B2 (1.25, 5, 20 mg/kg) or vehicle. Twenty minutes later, an intracerebroventricular injection of KA (0.7 µg/µl, 1 µl) was administered without anesthesia. The animals were then observed for a minimum of 60 min. Seizure severity was determined according to the scoring system described by Racine. At the end of the experiment, cannulae placement was verified.

PTZ-induced seizures [3] = test: PTZ-induced seizures in mice; assay type: in vivo; settings: 10 mg/kg i.p.; PTZ 85 mg/kg s.c.; P<0.001
Procedure: The latency of seizure onset, number of seizures, and mortality rate was recorded for the picrotoxin-injected mice. For the PTZ-injected mice, we recorded the latency of seizure onset, number of seizures, and presence of clonic seizures.

NC(=O)N1c2ccccc2C=Cc2ccccc21 [Carbamazepine, carbamazepine, reference compound]
protection against strychnine-induced seizures [1]: complete protection | effect on latency to seizure onset (4-AP-induced seizures; P<0.001): significantly prolonged | effect on mortality rate (4-AP-induced seizures; P<0.05): reduced the mortality rate

CCCn1c(=O)c2[nH]c(C3CCCC3)nc2n(CCC)c1=O [DPCPX, 8-Cyclopentyl-1,3-dipropylxanthine]
effect on onset time of seizure, antagonist alone (PTZ-induced seizures [2]; DPCPX 0.3125–1.25 mg/kg i.p. alone): did not affect | effect on the delaying effect of B2 on onset times of seizure (PTZ-induced seizures [2]; DPCPX pretreatment 5 min before B2 5 mg/kg, P<0.05): significantly blocked

CN1C(=O)CN=C(c2ccccc2)c2cc(Cl)ccc21 [Diazepam, diazepam, reference compound]
protection against KA-induced seizures (KA-induced seizures): significant protection | protection against PTZ-induced seizures (PTZ-induced seizures [3]): completely protected

Nc1nc2c(cnn2CCc2ccccc2)c2nc(-c3ccco3)nn12 [SCH58261, 5-amino-7-(β-phenylethyl)-2-(2-furyl)-pyrazolo-[4,3-e]-1,2,4-triazolo[1,5-c]-pyrimidine]
effect on onset time of seizure, antagonist alone (PTZ-induced seizures [2]; SCH58261 0.08–1.25 mg/kg i.p. alone): did not affect | effect on the delaying effect of B2 on seizure onset time (PTZ-induced seizures [2]; SCH58261 pretreatment 5 min before B2 5 mg/kg): did not affect the delaying effect
